These results are taken from publication PMC7215599, “Synthesis, Antitumor Evaluation, Molecular Modeling and Quantitative Structure–Activity Relationship (QSAR) of Novel 2-[(4-Amino-6-N-substituted-1,3,5-triazin-2-yl)methylthio]-4-chloro-5-methyl-N-(1H-benzo[d]imidazol-2(3H)-ylidene)Benzenesulfonamides” (International Journal of Molecular Sciences, 2020).

Assay [1] relates to HaCaT (non-cancerous keratinocyte cell line). The assay can be described thus: MTT cell viability assay, HaCaT. Format: cell-based. As to conditions: Homo sapiens, 72 h, 1-100 µM, mean ± SD, non-cancerous cells. On the procedure:
(§1) Compounds 6–49 were evaluated in vitro for their effects on the viability of the three human cancer cell lines: HCT-116 (colon cancer), MCF-7 (breast cancer) and HeLa (cervical cancer) as well as the non-cancerous keratinocyte cell line (HaCaT). The concentration required for 50% inhibition of cell viability IC50 was calculated and compared with the reference drug cisplatin, the results are shown in Table 1.
(§2) Cell lines: colon cancer (HCT-116), breast cancer (MCF-7), cervical cancer (HeLa), the human keratinocyte cell line (HaCaT); NT—not tested; IC50 was measured at concentrations 1, 10, 25, 50, and 100 µM. IC50 values are expressed as the mean ± SD of at last three independent experiments.
(§3) All chemicals, if not stated otherwise, were obtained from Sigma–Aldrich (St. Louis, MO, USA). The HCT-116 cell lines was purchased from ATCC (ATCC-No: CCL-247), while the MCF-7, HeLa and HaCaT cell lines were purchased from Cell Lines Services (Eppelheim, Germany). Cells were cultured in Dulbecco’s modified Eagle’s medium (DMEM) supplemented with 10% fetal bovine serum, 2 mM glutamine, 100 units/mL penicillin, and 100 µg/mL streptomycin. Cultures were maintained in a humidified atmosphere with 5% carbon dioxide at 37 °C in an incubator (Heraceus, HeraCell).
(§4) Cell viability was examined using the MTT (3-(4,5-dimethylthiazol-2-yl)-2,5-diphenyltetrazolium bromide) assay. Cells were seeded in 96-well plates at a density of 5 × 10^3 cells/well and treated for 72 h with the tested compounds in the concentration range of 1–100 µM (1, 10, 25, 50 and 100 µM). Then, MTT (0.5 mg/mL) was added to the medium and cells were further incubated for 2 h at 37 °C. In the next stage, cells were lysed with DMSO and the absorbance of the formazan solution was measured at 550 nm with a plate reader (1420 multilabel counter, Victor, Jügesheim, Germany). The experiment was performed in triplicate. Values are expressed as the mean ± SD of at least three independent experiments. Cisplatin was used as a positive control.

Assay [2] has as its system HCT-116 (colon cancer) cell line. The experiment in a line: MTT cell viability assay, HCT-116. In kind it is cell-based, human. As to conditions: for IC50: MTT, 72 h, 1-100 µM, mean ± SD. On the procedure:
as §1, §2, §3, §4

Assay [3] has as its system HeLa (cervical cancer) cell line. The assay can be described thus: MTT cell viability assay, HeLa. Format: cell-based, human. Particulars: for IC50: 72 h, MTT, 1-100 µM, mean ± SD. On the procedure: as §1, §2, §3, §4
The test system of assay [4] is MCF-7 (breast cancer) cell line. The assay can be described thus: MTT cell viability assay, MCF-7. In kind it is cell-based, human. Particulars: MTT, 72 h, 1-100 µM, mean ± SD. On the procedure:
as §1, §2, §3, §4

Turning to `Cc1cc(S(=O)(=O)N=c2[nH]c3ccccc3[nH]2)c(SCc2nc(N)nc(N(C)C)n2)cc1Cl` [Compound 6, 2-{[4-Amino-6-(dimethylamino)-1,3,5-triazin-2-yl]methylthio}-N-(1H-benzo[d]imidazol-2(3H)-ylidene)-4-chloro-5-methylbenzenesulfonamide], the IC50 in assay [1] stood at 57 ± 3 µM; in assay [2] (Homo sapiens, HCT-116, 72 h), 49 ± 1 µM; in assay [3] (Homo sapiens, HeLa), 50 ± 2 µM; in assay [4] (Homo sapiens, MCF7, 72 h), 52 ± 1 µM.

For `Cc1cc(S(=O)(=O)N=c2[nH]c3ccccc3[nH]2)c(SCc2nc(N)nc(N3CCOCC3)n2)cc1Cl` [Compound 7, 2-[(4-Amino-6-morpholino-1,3,5-triazin-2-yl)methylthio]-N-(1H-benzo[d]imidazol-2(3H)-ylidene)-4-chloro-5-methylbenzenesulfonamide], the IC50 in assay [1] is 102 ± 4 µM; in assay [2] (Homo sapiens, HCT-116, 72 h), 75 ± 3 µM; in assay [3] (Homo sapiens, HeLa) it was more than 100 µM; in assay [3] it was 86 ± 3 µM; in assay [4] (Homo sapiens, MCF7, 72 h), more than 100 µM; in assay [4], 99 ± 3 µM.

`CC1=NN(c2nc(N)nc(CSc3cc(Cl)c(C)cc3S(=O)(=O)N=c3[nH]c4ccccc4[nH]3)n2)C(C)(C)C1` [Compound 8, 2-{[4-Amino-6-(3,5,5-trimethyl-4,5-dihydro-1H-pyrazol-1-yl)-1,3,5-triazin-2-yl]metylthio}-N-(1H-benzo[d]imidazol-2(3H)-ylidene)-4-chloro-5-methylbenzenesulfonamide]: the IC50 stood at 43 ± 2 µM in assay [1]; 23 ± 1 µM in assay [2] (Homo sapiens, HCT-116, 72 h); 31 ± 2 µM in assay [3] (Homo sapiens, HeLa); 34 ± 2 µM in assay [4] (Homo sapiens, MCF7, 72 h).

Turning to `Cc1cc(S(=O)(=O)N=c2[nH]c3ccccc3[nH]2)c(SCc2nc(N)nc(N3CCCc4ccccc43)n2)cc1Cl` [Compound 10, 2-{[4-Amino-6-(3,4-dihydroquinolin-1(2H)-yl)-1,3,5-triazin-2-yl]methylthio}-N-(1H-benzo[d]imidazol-2(3H)-ylidene)-4-chloro-5-methylbenzenesulfonamide], the IC50 came out at 45 ± 2 µM in assay [1]; 32 ± 3 µM in assay [2] (Homo sapiens, HCT-116, 72 h); 30 ± 1 µM in assay [3] (Homo sapiens, HeLa); 25 ± 1 µM in assay [4] (Homo sapiens, MCF7, 72 h).

Regarding `Cc1cc(S(=O)(=O)N=c2[nH]c3ccccc3[nH]2)c(SCc2nc(N)nc(Nc3ccccc3)n2)cc1Cl` [Compound 11, 2-{[4-Amino-6-(phenylamino)-1,3,5-triazin-2-yl]methylthio}-N-(1H-benzo[d]imidazol-2(3H)-ylidene)-4-chloro-5-methylbenzenesulfonamide], the IC50 in assay [1] stood at 58 ± 2 µM; in assay [2] (Homo sapiens, HCT-116, 72 h), 37 ± 2 µM; in assay [3] (Homo sapiens, HeLa) it was 39 ± 1 µM; in assay [4] (Homo sapiens, MCF7, 72 h), 41 ± 1 µM.

On to `Cc1cc(S(=O)(=O)N=c2[nH]c3ccccc3[nH]2)c(SCc2nc(N)nc(Nc3ccc(F)cc3)n2)cc1Cl` [Compound 12, 2-[{4-Amino-6-[(4-fluorophenyl)amino]-1,3,5-triazin-2-yl}metylthio]-N-(1H-benzo[d]imidazol-2(3H)-ylidene)-4-chloro-5-methylbenzenesulfonamide], for which the IC50 is 43 ± 2 µM in assay [1]; 36 ± 1 µM in assay [2] (Homo sapiens, HCT-116, 72 h); 36 ± 2 µM in assay [3] (Homo sapiens, HeLa); 35 ± 2 µM in assay [4] (Homo sapiens, MCF7, 72 h).

For `Cc1cc(S(=O)(=O)N=c2[nH]c3ccccc3[nH]2)c(SCc2nc(N)nc(Nc3ccc(Cl)cc3)n2)cc1Cl` [Compound 13, 2-[{4-Amino-6-[(4-chlorophenyl)amino]-1,3,5-triazin-2-yl}metylthio]-N-(1H-benzo[d]imidazol-2(3H)-ylidene)-4-chloro-5-methylbenzenesulfonamide], the IC50 in assay [1] came out at 41 ± 2 µM; in assay [2] (Homo sapiens, HCT-116, 72 h) it was 32 ± 1 µM; in assay [3] (Homo sapiens, HeLa) it was 35 ± 1 µM; in assay [4] (Homo sapiens, MCF7, 72 h) it was 24 ± 1 µM.

As for `COc1ccc(Nc2nc(N)nc(CSc3cc(Cl)c(C)cc3S(=O)(=O)N=c3[nH]c4ccccc4[nH]3)n2)cc1` [Compound 14, 2-[{4-Amino-6-[(4-methoxyphenyl)amino]-1,3,5-triazin-2-yl}metylthio]-N-(1H-benzo[d]imidazol-2(3H)-ylidene)-4-chloro-5-methylbenzenesulfonamide], the IC50 was determined as 65 ± 3 µM in assay [1]; 54 ± 2 µM in assay [2] (Homo sapiens, HCT-116, 72 h); 56 ± 2 µM in assay [3] (Homo sapiens, HeLa); 41 ± 1 µM in assay [4] (Homo sapiens, MCF7, 72 h).

Turning to `Cc1cc(S(=O)(=O)N=c2[nH]c3ccccc3[nH]2)c(SCc2nc(N)nc(NCc3ccccc3)n2)cc1Cl` [Compound 15, 2-{[4-Amino-6-(benzylamino)-1,3,5-triazin-2-yl]metylthio}-N-(1H-benzo[d]imidazol-2(3H)-ylidene)-4-chloro-5-methylbenzenesulfonamide], the IC50 in assay [2] (Homo sapiens, HCT-116, 72 h) is 22 ± 1 µM; in assay [3] (Homo sapiens, HeLa), more than 100 µM; in assay [3], 92 ± 2 µM; in assay [4] (Homo sapiens, MCF7, 72 h) it was 27 ± 1 µM.

Take `Cc1cc(S(=O)(=O)N=c2[nH]c3ccccc3[nH]2)c(SCc2nc(N)nc(N(C)c3ccccc3)n2)cc1Cl` [Compound 16, 2-[{4-Amino-6-[methyl(phenyl)amino]-1,3,5-triazin-2-yl}metylthio]-N-(1H-benzo[d]imidazol-2(3H)-ylidene)-4-chloro-5-methylbenzenesulfonamide]: the IC50 worked out at 45 ± 2 µM in assay [1]; 33 ± 1 µM in assay [2] (Homo sapiens, HCT-116, 72 h); 33 ± 1 µM in assay [3] (Homo sapiens, HeLa); 32 ± 1 µM in assay [4] (Homo sapiens, MCF7, 72 h).

For the molecule `Cc1cc(S(=O)(=O)N=c2[nH]c3ccccc3[nH]2)c(SCc2nc(N)nc(N(C)c3ccc(Cl)cc3)n2)cc1Cl` [Compound 17, 2-[{4-Amino-6-[(4-chlorophenyl)(methyl)amino]-1,3,5-triazin-2-yl}methylthio]-N-(1H-benzo[d]imidazol-2(3H)-ylidene)-4-chloro-5-methylbenzenesulfonamide], the IC50 in assay [1] was 43 ± 2 µM; in assay [2] (Homo sapiens, HCT-116, 72 h) it was 29 ± 1 µM; in assay [3] (Homo sapiens, HeLa), 30 ± 1 µM; in assay [4] (Homo sapiens, MCF7, 72 h) it was 31 ± 1 µM.

On to `Cc1cc(S(=O)(=O)N=c2[nH]c3ccccc3[nH]2)c(SCc2nc(N)nc(N3CCN(c4ccccc4F)CC3)n2)cc1Cl` [Compound 21, 2-[{4-Amino-6-[4-(2-fluorophenyl)piperazin-1-yl]-1,3,5-triazin-2-yl}metylthio]-N-(1H-benzo[d]imidazol-2(3H)-ylidene)-4-chloro-5-methylbenzenesulfonamide], for which the IC50 was 32 ± 1 µM in assay [1]; 15 ± 1 µM in assay [2] (Homo sapiens, HCT-116, 72 h); 17 ± 0.5 µM in assay [3] (Homo sapiens, HeLa); 24 ± 1 µM in assay [4] (Homo sapiens, MCF7, 72 h).

Turning to `Cc1cc(S(=O)(=O)N=c2[nH]c3ccccc3[nH]2)c(SCc2nc(N)nc(N3CCN(c4ccc(C(F)(F)F)cc4)CC3)n2)cc1Cl` [Compound 22, 2-{[4-Amino-6-{4-[4-(trifluoromethyl)phenyl]piperazin-1-yl}-1,3,5-triazin-2-yl]methylthio}-N-(1H-benzo[d]imidazol-2(3H)-ylidene)-4-chloro-5-methylbenzenesulfonamide], the IC50 in assay [1] was 34 ± 1 µM; in assay [2] (Homo sapiens, HCT-116, 72 h) it was 7 to 11 µM; in assay [2], 11 ± 0.5 µM; in assay [3] (Homo sapiens, HeLa), 11 to 18 µM; in assay [3] it was 11 ± 0.5 µM; in assay [4] (Homo sapiens, MCF7, 72 h), 15 to 24 µM. Also, inhibition in assay [4] was half-maximal at 24 ± 1 µM (IC50). Further, the “selectivity ratio HaCaT/HCT-116” value in assay [2] (ratio of IC50 values) turned out to be 3.1. Besides, in assay [3] (ratio of IC50 values), the “selectivity ratio HaCaT/HeLa” value came out at 3.1.

Turning to `Cc1cc(S(=O)(=O)N=c2[nH]c3ccccc3[nH]2)c(SCc2nc(N)nc(N3CCN(c4cccc(Cl)c4)CC3)n2)cc1Cl` [Compound 24, 2-[{4-Amino-6-[4-(3-chlorophenyl)piperazin-1-yl]-1,3,5-triazin-2-yl}methylthio]-N-(1H-benzo[d]imidazol-2(3H)-ylidene)-4-chloro-5-methylbenzenesulfonamide], the IC50 turned out to be 42 ± 2 µM in assay [1]; 17 ± 1 µM in assay [2] (Homo sapiens, HCT-116, 72 h); 27 ± 0.5 µM in assay [3] (Homo sapiens, HeLa); 20 ± 0.6 µM in assay [4] (Homo sapiens, MCF7, 72 h).

`Cc1cc(S(=O)(=O)N=c2[nH]c3ccccc3[nH]2)c(SCc2nc(N)nc(N3CCN(c4ccc([N+](=O)[O-])cc4)CC3)n2)cc1Cl` [Compound 29, 2-[{4-Amino-6-[4-(4-nitrophenyl)piperazin-1-yl]-1,3,5-triazin-2-yl}metylthio]-N-(1H-benzo[d]imidazol-2(3H)-ylidene)-4-chloro-5-methylbenzenesulfonamide]: the IC50 in assay [2] (Homo sapiens, HCT-116, 72 h) was more than 100 µM; in assay [2] it was 195 ± 4 µM; in assay [3] (Homo sapiens, HeLa) it was more than 100 µM; in assay [3] it was 56 ± 2 µM; in assay [4] (Homo sapiens, MCF7, 72 h), more than 100 µM; in assay [4], 134 ± 9 µM.

With `N.N.[Cl][Pt][Cl]` [cisplatin, reference compound], the results for the IC50 in assay [2], in assay [3] and in assay [4] were 2.2 ± 0.1 µM, 3.8 ± 0.2 µM and 3 ± 0.1 µM, respectively.
